Measurements as given in patent US20080050443A1, “Fast Release Composition Including Melt Granules of a Moisture Sensitive Drug and Process for Manufacturing Thereof” (priority 2004, published 2008).

Assay: Moisture sensitivity of Compound I
Assay type: physicochemical
Text: This monohydrochloride of formula (I) (hereinafter, “Compound I”) is described in scheme 2 of Villhauer et al., J Med Chem, Vol. 45, No. 12, pp. 2362-65 (2002), which is hereby incorporated by reference. Compound I is a moisture-sensitive therapeutic compound. At humidities above 75%, Compound I absorbs moisture and begins to deliquesce; moreover, Compound I undergoes both acidic and basic degradation with cyclic imidate (“CI”) being the major degradation product.

## Cl.N#Cc1ccc(NCCNCC(=O)N2CCC[C@H]2C#N)nc1 [Compound I, [S]-1-[2-(5-cyano-2-pyridinylamino)ethylamino]acetyl-2-pyrolidine carbonitrile monohydrochloride]
  humidity at which Compound I absorbs moisture and begins to deliquesce: above 75%
